Assay results reported in patent US9545105B2, “1-(heterocyclic carbonyl) piperidines” (BAYER INTELLECTUAL PROPERTY GMBH, priority 2010, dated 2017).

test system: Pyrenophora teres; assay: In vivo preventive test on Pyrenophora teres (barley); details: 500 ppm of active ingredient, evaluated 7-9 days after inoculation
Protocol: Solvent: 49 parts by weight of N,N-dimethylformamide Emulsifier: 1 part by weight of alkylaryl polyglycol ether To produce a suitable preparation of active compound, 1 part by weight of active compound is mixed with the stated amounts of solvent and emulsifier, and the concentrate is diluted with water to the desired concentration. To test for preventive activity, young plants are sprayed with the preparation of active compound at the stated rate of application. One day after this treatment, the plants are inoculated with an aqueous spore suspension of Pyrenophora teres. The plants remain for 48 hours in an incubation cabinet at 22° C. and a relative atmospheric humidity of 100%. Then the plants are placed in a greenhouse at a temperature of approximately 20° C. and a relative atmospheric humidity of approximately 80%. The test is evaluated 7-9 days after the inoculation. 0% means an efficacy which corresponds to that of the untreated control while an efficacy of 100% means that no disease is observed.

Compound	Efficacy
Cc1cc(C(=O)N2CCCCC2c2ccc(Br)cc2)c(C)o1 (centres unmarked) [Example 100]	70%
CCc1nn(C)c(F)c1C(=O)N1CCCCC1Cc1ccccc1 (centres unmarked) [Example 131]	100%
CCC(c1ccccc1Cl)C1CCCCN1C(=O)c1c(C(F)F)nn(C)c1Cl (centres unmarked) [Example 161]	94%
Cn1nc(C(F)F)c(C(=S)N2CCCCC2c2cccc(Cl)c2)c1Cl (centres unmarked) [Example 50]	100%
COc1cc(OC)cc(C2CCCCN2C(=O)c2cc(C)oc2C)c1 (centres unmarked) [Example 70]	80%
CCc1nn(C)c(F)c1C(=O)N1CCCCC1c1ccc(Br)cc1 (centres unmarked) [Example 102]	100%
Cc1cc(C(=O)N2CCCCC2c2ccccc2C)c(C)o1 (centres unmarked) [Example 3]	80%
Cc1cc(C(=O)N2CCCCC2c2cccc(Cl)c2)c(C)o1 (centres unmarked) [Example 46]	90%
Cc1cc(C(=O)N2CCCCC2c2ccc(Cl)cc2Cl)c(C)o1 (centres unmarked) [Example 79]	80%
Cc1cc(C)cc(C2CCCCN2C(=O)c2cc(C)oc2C)c1 (centres unmarked) [Example 12]	90%
COc1ccccc1CC1CCCCN1C(=O)c1sc(C)nc1C(F)F (centres unmarked) [Example 159]	90%
Cc1cc(C(=O)N2CCCCC2c2cc(Cl)ccc2Cl)c(C)o1 (centres unmarked) [Example 84]	90%
Cc1nn(C)c(F)c1C(=O)N1CCCCC1c1ccc2c(c1)OCCO2 (centres unmarked) [Example 64]	95%

test system: not listed separately; assay: log P by HPLC on reversed-phase column (C 18), EEC Directive 79/831 Annex V.A8; assay type: physicochemical; details: HPLC on reversed-phase column (C 18); 40° C.; 0.1% aqueous formic acid and acetonitrile; linear gradient 10% to 90% acetonitrile
Protocol: In table 1, the log P values were determined in accordance with EEC Directive 79/831 Annex V.A8 by HPLC (High Performance Liquid Chromatography) on a reversed-phase column (C 18), using the method described below: Temperature: 40° C.; Mobile phases: 0.1% aqueous formic acid and acetonitrile; linear gradient from 10% acetonitrile to 90% acetonitrile. Calibration was carried out using unbranched alkan-2-ones (comprising 3 to 16 carbon atoms) with known log P values (determination of the log P values by the retention times using linear interpolation between two successive alkanones). lambda-max-values were determined using UV-spectra from 200 nm to 400 nm and the peak values of the chromatographic signals.

logP	Compound
3.09	Cc1cc(C)cc(C2CCCCN2C(=O)c2cn(C)nc2[N+](=O)[O-])c1 (centres unmarked) [Example 14]
4.16	Cc1cc(C(=O)N2CCCCC2c2ccc(Br)cc2)c(C)o1 (centres unmarked) [Example 100]
3.44	Cc1cc(C)cc(C2CCCCN2C(=O)c2nn(C)cc2Cl)c1 (centres unmarked) [Example 19]
2.92	CCc1nn(C)c(F)c1C(=O)N1CCCCC1Cc1ccccc1 (centres unmarked) [Example 131]
3.25	Cc1cc(C(=O)N2CCCCC2c2ccc3c(c2)OCCO3)c(C)o1 (centres unmarked) [Example 62]
3.59	Cc1cc(C(=O)N2CCCCC2Cc2cccc(F)c2)c(C)o1 (centres unmarked) [Example 152]
4.44	CCC(c1ccccc1Cl)C1CCCCN1C(=O)c1c(C(F)F)nn(C)c1Cl (centres unmarked) [Example 161]
4.49	Cc1cc(C)cc(C2CCCCN2C(=O)c2sc(Cl)nc2C)c1 (centres unmarked) [Example 25]
3.17	Cc1nc(C(F)F)c(C(=O)N2CCCCC2Cc2ccccc2)s1 (centres unmarked) [Example 133]
2.49	CCc1nn(C)c(F)c1C(=O)N1CCCCC1c1cc(OC)c(OC)c(OC)c1 (centres unmarked) [Example 109]
4.21	Cc1cc(C)cc(C2CCCCN2C(=O)c2ccsc2I)c1 (centres unmarked) [Example 35]
3.02	CCc1noc(C)c1C(=O)N1CCCCC1c1cc(OC)cc(OC)c1 (centres unmarked) [Example 69]
3.60	Cc1nn(C)c(Cl)c1C(=O)N1CCCCC1c1ccc(Cl)cc1Cl (centres unmarked) [Example 75]
4.51	Cc1cc(C)cc(C2CCCCN2C(=O)c2sc(Br)nc2C)c1 (centres unmarked) [Example 26]
4.31	Cn1nc(C(F)F)c(C(=S)N2CCCCC2c2cccc(Cl)c2)c1Cl (centres unmarked) [Example 50]
4.86	Cc1cc(C)cc(C2CCCCN2C(=O)c2sc(Cl)nc2Cl)c1 (centres unmarked) [Example 23]
3.35	CCc1noc(C)c1C(=O)N1CCCCC1c1ccccc1Br (centres unmarked) [Example 89]
3.71	Cc1cc(C)cc(C2CCCCN2C(=O)c2snnc2C)c1 (centres unmarked) [Example 17]
4.06	Cc1cc(C(=O)N2CCCCC2Cc2cccc(C(F)(F)F)c2)c(C)o1 (centres unmarked) [Example 168]
3.55	Cc1cc(C)cc(C2CCCCN2C(=O)c2nn(C)cc2Br)c1 (centres unmarked) [Example 18]
3.48	COc1cc(OC)cc(C2CCCCN2C(=O)c2cc(C)oc2C)c1 (centres unmarked) [Example 70]
3.55	CCn1nc(C)c(C(=O)N2CCCCC2c2ccc(Br)s2)c1F (centres unmarked) [Example 128]
3.92	Cc1cc(C(=O)N2CCCCC2CCc2ccccc2)c(C)o1 (centres unmarked) [Example 175]
3.70	Cc1nc(C(F)F)c(C(=O)N2CCCCC2Cc2cccc(C(F)(F)F)c2)s1 (centres unmarked) [Example 167]

logP	Compound
3.85	Cc1cc(C)cc(C2CCCCN2C(=O)c2cn(C)nc2C(Cl)Cl)c1 (centres unmarked) [Example 24]
3.51	CCc1nn(C)c(F)c1C(=O)N1CCCCC1c1ccc(Br)cc1 (centres unmarked) [Example 102]
2.82	CCc1noc(C)c1C(=O)N1CCCCC1c1ccc2c(c1)OCCO2 (centres unmarked) [Example 61]
3.29	CCc1noc(C)c1C(=O)N1CCCCC1c1ccccc1Cl (centres unmarked) [Example 38]
3.73	Cc1cc(C(=O)N2CCCCC2c2ccccc2C)c(C)o1 (centres unmarked) [Example 3]
3.04	COc1cc(C2CCCCN2C(=O)c2cc(C)oc2C)cc(OC)c1OC (centres unmarked) [Example 108]
3.89	CCc1noc(C)c1C(=O)N1CCCCC1c1ccc(Cl)cc1Cl (centres unmarked) [Example 77]
4.04	Cc1cc(C(=O)N2CCCCC2c2cccc(Cl)c2)c(C)o1 (centres unmarked) [Example 46]
4.54	Cc1cc(C(=O)N2CCCCC2c2ccc(Cl)cc2Cl)c(C)o1 (centres unmarked) [Example 79]
3.79	Cc1cc(C(=O)N2CCCCC2CCc2cccs2)c(C)o1 (centres unmarked) [Example 193]
3.63	COc1ccccc1CC1CCCCN1C(=O)c1cc(C)oc1C (centres unmarked) [Example 158]
3.11	CCc1noc(C)c1C(=O)N1CCCCC1Cc1ccccc1 (centres unmarked) [Example 130]
3.76	Cc1nc(C(F)F)c(C(=O)N2CCCCC2Cc2cccc3ccccc23)s1 (centres unmarked) [Example 170]
3.64	CCc1noc(C)c1C(=O)N1CCCCC1c1ccc(Br)cc1 (centres unmarked) [Example 101]
3.35	Cc1nc(C(F)F)c(C(=O)N2CCCCC2CCc2cccs2)s1 (centres unmarked) [Example 192]
3.19	CCc1noc(C)c1C(=O)N1CCCCC1c1ccccc1C (centres unmarked) [Example 2]
4.34	Cc1cc(C)cc(C2CCCCN2C(=O)c2cc(C)oc2C)c1 (centres unmarked) [Example 12]
3.65	Cn1nc(C(F)F)c(C(=O)N2CCCCC2Cc2cccc3ccccc23)c1F (centres unmarked) [Example 171]
3.25	Cc1cc(C)cc(C2CCCCN2C(=O)c2scnc2C)c1 (centres unmarked) [Example 29]
3.52	Cc1nc(C(F)F)c(C(=O)N2CCCCC2CCc2ccccc2)s1 (centres unmarked) [Example 178]
3.33	COc1ccccc1CC1CCCCN1C(=O)c1sc(C)nc1C(F)F (centres unmarked) [Example 159]
3.60	Cc1cc(C)cc(C2CCCCN2C(=O)c2nnsc2C)c1 (centres unmarked) [Example 15]
3.76	CCc1noc(C)c1C(=O)N1CCCCC1c1ccc2ccccc2c1 (centres unmarked) [Example 119]
4.59	Cc1cc(C)cc(C2CCCCN2C(=O)c2snnc2C(C)C)c1 (centres unmarked) [Example 16]

logP	Compound
4.29	Cc1cc(C(=O)N2CCCCC2c2ccc(Br)s2)c(C)o1 (centres unmarked) [Example 127]
2.21	COc1cc(C2CCCCN2C(=O)c2c(C)nn(C)c2F)cc(OC)c1OC (centres unmarked) [Example 106]
3.44	CCc1noc(C)c1C(=O)N1CCCCC1CCc1ccccc1 (centres unmarked) [Example 174]
4.36	Cc1cc(C(=O)N2CCCCC2c2cc(Cl)ccc2Cl)c(C)o1 (centres unmarked) [Example 84]
2.99	Cn1nc(C(F)F)c(C(=O)N2CCCCC2c2ccc3c(c2)OCCO3)c1Cl (centres unmarked) [Example 66]
3.73	Cc1cc(C)cc(C2CCCCN2C(=O)c2scnc2Cl)c1 (centres unmarked) [Example 21]
3.89	Cc1cc(C(=O)N2CCCCC2c2ccccc2Cl)c(C)o1 (centres unmarked) [Example 39]
3.78	CCc1noc(C)c1C(=O)N1CCCCC1c1cc(Cl)ccc1Cl (centres unmarked) [Example 85]
2.39	Cc1nn(C)c(F)c1C(=O)N1CCCCC1c1ccc2c(c1)OCCO2 (centres unmarked) [Example 64]
3.51	CCc1noc(C)c1C(=O)N1CCCCC1c1ccc(Cl)cc1 (centres unmarked) [Example 52]
4.65	Cc1cc(C(=O)N2CCCCC2c2cccc(Oc3ccccc3)c2)c(C)o1 (centres unmarked) [Example 111]
4.59	Cc1cc(C)cc(C2CCCCN2C(=O)c2c(C(F)(F)F)cn(C)c2Cl)c1 (centres unmarked) [Example 22]
3.55	Cc1cc(C)cc(C2CCCCN2C(=O)c2nn(C)cc2I)c1 (centres unmarked) [Example 13]
2.64	CCc1noc(C)c1C(=O)N1CCCCC1c1cc(OC)c(OC)c(OC)c1 (centres unmarked) [Example 107]
2.66	CCc1nn(C)c(F)c1C(=O)N1CCCCC1c1ccc2c(c1)OCCO2 (centres unmarked) [Example 63]
3.44	Cc1cc(C)cc(C2CCCCN2C(=O)c2sc(C)nc2C)c1 (centres unmarked) [Example 27]
4.06	Cc1cc(C)cc(C2CCCCN2C(=O)c2sc(C)nc2Cl)c1 (centres unmarked) [Example 28]
4.93	Cc1cc(C)cc(C2CCCCN2C(=O)c2c(C)oc(C)c2Br)c1 (centres unmarked) [Example 33]
3.67	CCn1nc(C)c(C(=O)N2CCCCC2c2cc(C)cc(C)c2)c1F (centres unmarked) [Example 20]
4.34	CCn1ncc(Cl)c1C(=O)N1CCCCC1c1cc(C)cc(C)c1 (centres unmarked) [Example 32]
3.73	CCc1noc(C)c1C(=O)N1CCCCC1c1cccc(Cl)c1Cl (centres unmarked) [Example 74]
3.48	CCc1noc(C)c1C(=O)N1CCCCC1c1cccc(Cl)c1 (centres unmarked) [Example 45]

same assay, conditions: reversed-phase HPLC column (C 18); HPLC, 40° C., 0.1% aqueous formic acid and acetonitrile

chromatographic logP	Compound
3.17	Cc1ccc(C2CCCC(C)N2C(=O)c2cn(C)nc2C(F)F)cc1 (centres unmarked) [Example 199]
3.73	Cc1ccc(C2CCCC(C)N2C(=O)c2c(C(F)F)nn(C)c2Cl)cc1 (centres unmarked) [Example 198]
3.55	Cc1ccc(C2CCCC(C)N2C(=O)c2c(C(F)F)nn(C)c2F)cc1 (centres unmarked) [Example 197]
